Data as given in the supplement of paper PMC10307832.

Experiments:
Assay in all cases: relative viability (nuclei count vs DMSO), 5 days (fraction); higher = more cells survive
RO-3306 + Navitoclax = compound: C1=CC2=C(C=CC(=C2)C=C3C(=O)NC(=NCC4=CC=CS4)S3)N=C1 [RO-3306] + CC1(C)CCC(c2ccc(Cl)cc2)=C(CN2CCN(c3ccc(C(=O)NS(=O)(=O)c4ccc(N[C@H](CCN5CCOCC5)CSc5ccccc5)c(S(=O)(=O)C(F)(F)F)c4)cc3)CC2)C1 [Navitoclax] (partner 0.5 µM)
In short: (§1)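 Lung cancer cell lines, seeded in 1536-well plates, were treated the following day by pin tool with a single drug or with five library-drug doses (not always all listed) in √10 steps on top of a fixed anchor-drug dose. Cells were fixed and nuclei stained in one step after 5 days, and nuclei were counted. Relative viability is the nuclei count for treated wells divided by that for vehicle wells, reported as medians of duplicate plates.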

[1] = compound: O=S(=O)(c1ccccc1)N(CC(F)(F)F)c1ccc(C(O)(C(F)(F)F)C(F)(F)F)cc1 + N=C(N)NC(=N)NCCc1ccccc1 [Phenformin] (partner 250 µM)
In short: as §1

RO-3306 + Lapatinib = compound: C1=CC2=C(C=CC(=C2)C=C3C(=O)NC(=NCC4=CC=CS4)S3)N=C1 [RO-3306] + CS(=O)(=O)CCNCc1ccc(-c2ccc3ncnc(Nc4ccc(OCc5cccc(F)c5)c(Cl)c4)c3c2)o1 [Lapatinib] (partner 2 µM)
In short: as §1

[2] = compound: O=S(=O)(c1ccccc1)N(CC(F)(F)F)c1ccc(C(O)(C(F)(F)F)C(F)(F)F)cc1 + COc1cc2c(Oc3ccc(NC(=O)C4(C(=O)Nc5ccc(F)cc5)CC4)cc3F)ccnc2cc1OCCCN1CCOCC1 [Foretinib] (partner 0.25 µM)
In short: as §1

[3] = compound: O=S(=O)(c1ccccc1)N(CC(F)(F)F)c1ccc(C(O)(C(F)(F)F)C(F)(F)F)cc1 + CC(=O)Nc1cccc(-n2c(=O)n(C3CC3)c(=O)c3c(Nc4ccc(I)cc4F)n(C)c(=O)c(C)c32)c1 [Trametinib] (partner 0.02 µM)
In short: as §1

Cell Line: NCI-H1734
- relative viability (RO-3306 + Navitoclax; first compound 0.01 µM): 1
- relative viability (RO-3306 + Navitoclax; first compound 0.03162 µM): 0.564
- relative viability (RO-3306 + Navitoclax; first compound 0.1 µM): 0.922
- relative viability (RO-3306 + Navitoclax; first compound 0.3162 µM): 0.797
- relative viability (RO-3306 + Navitoclax; first compound 1 µM): 0.873
- relative viability ([1]; first compound 0.8 µM): 0.562
- relative viability ([1]; first compound 2.53 µM): 0.45
- relative viability ([1]; first compound 8 µM): 0.354
- relative viability (RO-3306 + Lapatinib; first compound 0.01 µM): 1.06
- relative viability (RO-3306 + Lapatinib; first compound 0.03162 µM): 0.834
- relative viability (RO-3306 + Lapatinib; first compound 0.1 µM): 1.03
- relative viability (RO-3306 + Lapatinib; first compound 0.3162 µM): 1.07
- relative viability (RO-3306 + Lapatinib; first compound 1 µM): 0.808
- relative viability ([2]; first compound 0.8 µM): 1.07
- relative viability ([2]; first compound 2.53 µM): 0.868
- relative viability ([2]; first compound 8 µM): 0.822
- relative viability ([3]; first compound 0.8 µM): 0.711
- relative viability ([3]; first compound 2.53 µM): 0.65
- relative viability ([3]; first compound 8 µM): 0.664

Cell Line: NCI-H1755
- relative viability (RO-3306 + Navitoclax; first compound 0.01 µM): 1.1
- relative viability (RO-3306 + Navitoclax; first compound 0.03162 µM): 0.919
- relative viability (RO-3306 + Navitoclax; first compound 0.1 µM): 1.04
- relative viability (RO-3306 + Navitoclax; first compound 0.3162 µM): 1.01
- relative viability (RO-3306 + Navitoclax; first compound 1 µM): 1.05
- relative viability ([1]; first compound 0.8 µM): 0.638
- relative viability ([1]; first compound 2.53 µM): 0.614
- relative viability ([1]; first compound 8 µM): 0.569
- relative viability (RO-3306 + Lapatinib; first compound 0.01 µM): 1.2
- relative viability (RO-3306 + Lapatinib; first compound 0.03162 µM): 1.04
- relative viability (RO-3306 + Lapatinib; first compound 0.1 µM): 1.03
- relative viability (RO-3306 + Lapatinib; first compound 0.3162 µM): 1.04
- relative viability (RO-3306 + Lapatinib; first compound 1 µM): 1.01
- relative viability ([2]; first compound 0.8 µM): 0.891
- relative viability ([2]; first compound 2.53 µM): 0.79
- relative viability ([2]; first compound 8 µM): 0.951
- relative viability ([3]; first compound 0.8 µM): 0.769
- relative viability ([3]; first compound 2.53 µM): 0.661
- relative viability ([3]; first compound 8 µM): 0.815

Cell Line: NCI-H1793
- relative viability (RO-3306 + Navitoclax; first compound 0.01 µM): 0.432
- relative viability (RO-3306 + Navitoclax; first compound 0.03162 µM): 0.391
- relative viability (RO-3306 + Navitoclax; first compound 0.1 µM): 0.46
- relative viability (RO-3306 + Navitoclax; first compound 0.3162 µM): 0.46
- relative viability (RO-3306 + Navitoclax; first compound 1 µM): 0.358
- relative viability ([1]; first compound 0.8 µM): 0.447
- relative viability ([1]; first compound 2.53 µM): 0.332
- relative viability ([1]; first compound 8 µM): 0.285
- relative viability (RO-3306 + Lapatinib; first compound 0.01 µM): 0.794
- relative viability (RO-3306 + Lapatinib; first compound 0.03162 µM): 0.409
- relative viability (RO-3306 + Lapatinib; first compound 0.1 µM): 0.641
- relative viability (RO-3306 + Lapatinib; first compound 0.3162 µM): 0.753
- relative viability (RO-3306 + Lapatinib; first compound 1 µM): 0.636
- relative viability ([2]; first compound 0.8 µM): 0.484
- relative viability ([2]; first compound 2.53 µM): 0.321
- relative viability ([2]; first compound 8 µM): 0.566
- relative viability ([3]; first compound 0.8 µM): 0.33
- relative viability ([3]; first compound 2.53 µM): 0.295
- relative viability ([3]; first compound 8 µM): 0.29

Cell Line: NCI-H1915
- relative viability (RO-3306 + Navitoclax; first compound 0.01 µM): 0.808
- relative viability (RO-3306 + Navitoclax; first compound 0.03162 µM): 0.797
- relative viability (RO-3306 + Navitoclax; first compound 0.1 µM): 0.792
- relative viability (RO-3306 + Navitoclax; first compound 0.3162 µM): 0.781
- relative viability (RO-3306 + Navitoclax; first compound 1 µM): 0.718
- relative viability ([1]; first compound 0.8 µM): 0.373
- relative viability ([1]; first compound 2.53 µM): 0.309
- relative viability ([1]; first compound 8 µM): 0.408
- relative viability (RO-3306 + Lapatinib; first compound 0.01 µM): 1.07
- relative viability (RO-3306 + Lapatinib; first compound 0.03162 µM): 0.973
- relative viability (RO-3306 + Lapatinib; first compound 0.1 µM): 0.969
- relative viability (RO-3306 + Lapatinib; first compound 0.3162 µM): 0.945
- relative viability (RO-3306 + Lapatinib; first compound 1 µM): 0.446
- relative viability ([2]; first compound 0.8 µM): 1.1
- relative viability ([2]; first compound 2.53 µM): 1.03
- relative viability ([2]; first compound 8 µM): 1.1
- relative viability ([3]; first compound 0.8 µM): 0.303
- relative viability ([3]; first compound 2.53 µM): 0.261
- relative viability ([3]; first compound 8 µM): 0.255

Cell Line: NCI-H1944
- relative viability (RO-3306 + Navitoclax; first compound 0.01 µM): 1.11
- relative viability (RO-3306 + Navitoclax; first compound 0.03162 µM): 1.03
- relative viability (RO-3306 + Navitoclax; first compound 0.1 µM): 0.963
- relative viability (RO-3306 + Navitoclax; first compound 0.3162 µM): 1.09
- relative viability (RO-3306 + Navitoclax; first compound 1 µM): 0.993
- relative viability ([1]; first compound 0.8 µM): 0.209
- relative viability ([1]; first compound 2.53 µM): 0.19
- relative viability ([1]; first compound 8 µM): 0.197
- relative viability (RO-3306 + Lapatinib; first compound 0.01 µM): 0.774
- relative viability (RO-3306 + Lapatinib; first compound 0.03162 µM): 0.674
- relative viability (RO-3306 + Lapatinib; first compound 0.1 µM): 0.802
- relative viability (RO-3306 + Lapatinib; first compound 0.3162 µM): 0.909
- relative viability (RO-3306 + Lapatinib; first compound 1 µM): 0.545
- relative viability ([2]; first compound 0.8 µM): 0.938
- relative viability ([2]; first compound 2.53 µM): 0.826
- relative viability ([2]; first compound 8 µM): 0.832
- relative viability ([3]; first compound 0.8 µM): 0.448
- relative viability ([3]; first compound 2.53 µM): 0.389
- relative viability ([3]; first compound 8 µM): 0.432

Cell Line: NCI-H1975
- relative viability (RO-3306 + Navitoclax; first compound 0.01 µM): 1.49
- relative viability (RO-3306 + Navitoclax; first compound 0.03162 µM): 0.986
- relative viability (RO-3306 + Navitoclax; first compound 0.1 µM): 1.22
- relative viability (RO-3306 + Navitoclax; first compound 0.3162 µM): 1.12
- relative viability (RO-3306 + Navitoclax; first compound 1 µM): 1.01
- relative viability ([1]; first compound 0.8 µM): 0.452
- relative viability ([1]; first compound 2.53 µM): 0.439
- relative viability ([1]; first compound 8 µM): 0.414
- relative viability (RO-3306 + Lapatinib; first compound 0.01 µM): 1.05
- relative viability (RO-3306 + Lapatinib; first compound 0.03162 µM): 0.559
- relative viability (RO-3306 + Lapatinib; first compound 0.1 µM): 0.787
- relative viability (RO-3306 + Lapatinib; first compound 0.3162 µM): 0.919
- relative viability (RO-3306 + Lapatinib; first compound 1 µM): 0.752
- relative viability ([2]; first compound 0.8 µM): 1.11
- relative viability ([2]; first compound 2.53 µM): 1.01
- relative viability ([2]; first compound 8 µM): 1.13
- relative viability ([3]; first compound 0.8 µM): 0.341
- relative viability ([3]; first compound 2.53 µM): 0.338
- relative viability ([3]; first compound 8 µM): 0.316

Cell Line: NCI-H1993
- relative viability (RO-3306 + Navitoclax; first compound 0.03162 µM): 0.926
- relative viability (RO-3306 + Navitoclax; first compound 0.1 µM): 0.892
- relative viability (RO-3306 + Navitoclax; first compound 0.3162 µM): 0.864
- relative viability (RO-3306 + Navitoclax; first compound 1 µM): 0.83
- relative viability ([1]; first compound 0.8 µM): 0.522
- relative viability ([1]; first compound 2.53 µM): 0.529
- relative viability ([1]; first compound 8 µM): 0.469
- relative viability (RO-3306 + Lapatinib; first compound 0.03162 µM): 0.747
- relative viability (RO-3306 + Lapatinib; first compound 0.1 µM): 0.74
- relative viability (RO-3306 + Lapatinib; first compound 0.3162 µM): 0.795
- relative viability (RO-3306 + Lapatinib; first compound 1 µM): 0.839
- relative viability ([2]; first compound 0.8 µM): 0.681
- relative viability ([2]; first compound 2.53 µM): 0.726
- relative viability ([2]; first compound 8 µM): 0.679
- relative viability ([3]; first compound 0.8 µM): 0.554
- relative viability ([3]; first compound 2.53 µM): 0.457
- relative viability ([3]; first compound 8 µM): 0.478

Cell Line: NCI-H2009
- relative viability (RO-3306 + Navitoclax; first compound 0.01 µM): 1.2
- relative viability (RO-3306 + Navitoclax; first compound 0.03162 µM): 1.14
- relative viability (RO-3306 + Navitoclax; first compound 0.1 µM): 1.17
- relative viability (RO-3306 + Navitoclax; first compound 0.3162 µM): 1.09
- relative viability (RO-3306 + Navitoclax; first compound 1 µM): 1.13
- relative viability ([1]; first compound 0.8 µM): 0.47
- relative viability ([1]; first compound 2.53 µM): 0.439
- relative viability ([1]; first compound 8 µM): 0.419
- relative viability (RO-3306 + Lapatinib; first compound 0.01 µM): 0.805
- relative viability (RO-3306 + Lapatinib; first compound 0.03162 µM): 0.887
- relative viability (RO-3306 + Lapatinib; first compound 0.1 µM): 0.867
- relative viability (RO-3306 + Lapatinib; first compound 0.3162 µM): 1.07
- relative viability (RO-3306 + Lapatinib; first compound 1 µM): 0.872
- relative viability ([2]; first compound 0.8 µM): 1.26
- relative viability ([2]; first compound 2.53 µM): 1.08
- relative viability ([2]; first compound 8 µM): 0.988
- relative viability ([3]; first compound 0.8 µM): 0.259
- relative viability ([3]; first compound 2.53 µM): 0.246
- relative viability ([3]; first compound 8 µM): 0.289
